Data from patent US6093730A, “Substituted isoquinoline-3-carboxamides, their preparation and their use as pharmaceuticals” (Hoechst Marion Roussel Deutschland GmbH, priority 1997, dated 2000).

What was measured:
[1] = test system: hydroxyproline formation; experiment: Carbon tetrachloride-induced liver fibrosis model in rats, inhibition of hydroxyproline formation; assay type: in vivo, rat; conditions: two weeks with CCl4
Method: The antifibrotic action was determined in the model of carbon tetrachloride-induced liver fibrosis. For this, rats were treated twice weekly with CCl4 (1 ml/kg) dissolved in olive oil. The test substance was administered daily, if appropriate even twice daily, orally or intraperitoneally dissolved in a suitable compatible solvent. The extent of the liver fibrosis was determined histologically and the proportion of collagen in the liver was analyzed by hydroxyproline determination as described in Kivirikko et al., ANAL. BIOCHEM. […] The fibrogenesis activity was determined by radioimmunological determination of collagen fragments and procollagen peptides in the serum.
The measurement of the inhibition of hydroxyproline formation by the test substances was based on this level.
Here the experimental animals were treated for two weeks only with carbon tetrachloride, then for the next two weeks with carbon tetrachloride and test substance. The test substances were administered intraperitoneally twice per day in the total amount indicated below in Table II,

[2] = target: T1, prolyl-4-hydroxylase (Gallus gallus, UniProt P16924); experiment: Inhibition of prolyl-4-hydroxylase (Table I); assay type: biochemical
T1 sequence (P16924 1-516): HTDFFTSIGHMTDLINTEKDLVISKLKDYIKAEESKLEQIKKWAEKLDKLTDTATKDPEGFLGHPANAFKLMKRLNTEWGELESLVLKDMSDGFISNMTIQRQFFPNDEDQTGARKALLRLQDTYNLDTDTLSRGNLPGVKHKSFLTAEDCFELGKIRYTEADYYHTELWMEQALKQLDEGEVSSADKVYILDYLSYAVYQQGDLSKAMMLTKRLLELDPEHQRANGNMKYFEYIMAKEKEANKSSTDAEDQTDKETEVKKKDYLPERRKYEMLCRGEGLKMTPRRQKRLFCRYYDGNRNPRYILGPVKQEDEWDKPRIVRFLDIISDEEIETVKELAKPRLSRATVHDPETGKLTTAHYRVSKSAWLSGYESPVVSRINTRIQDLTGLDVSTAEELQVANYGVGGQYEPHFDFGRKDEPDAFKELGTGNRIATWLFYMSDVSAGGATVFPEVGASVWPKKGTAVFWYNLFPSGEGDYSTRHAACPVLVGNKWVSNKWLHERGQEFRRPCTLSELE
T1 sequence (P09102 23-515 partner): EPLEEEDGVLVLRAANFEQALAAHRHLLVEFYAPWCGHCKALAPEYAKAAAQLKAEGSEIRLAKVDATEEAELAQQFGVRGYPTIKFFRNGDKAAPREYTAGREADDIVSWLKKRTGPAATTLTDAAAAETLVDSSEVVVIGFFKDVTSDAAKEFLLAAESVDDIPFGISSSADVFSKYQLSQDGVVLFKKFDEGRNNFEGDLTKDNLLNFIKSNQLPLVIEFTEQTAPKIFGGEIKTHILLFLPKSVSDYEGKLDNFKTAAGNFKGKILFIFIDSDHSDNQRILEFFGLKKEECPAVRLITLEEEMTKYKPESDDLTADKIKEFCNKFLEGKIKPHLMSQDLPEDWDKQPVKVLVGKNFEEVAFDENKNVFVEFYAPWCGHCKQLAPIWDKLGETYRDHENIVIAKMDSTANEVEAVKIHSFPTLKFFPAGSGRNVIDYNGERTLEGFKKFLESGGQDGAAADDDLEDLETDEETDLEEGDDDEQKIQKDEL
Method: The inhibition of this enzyme was determined as described by Kaule and Gunzler, ANAL. BIOCHEM.

[3] = test system: liver steatosis; experiment: Liver steatosis on treatment of male rats; assay type: in vivo, rat; conditions: up to six weeks, male rats (Fischer F344, Sprague Dawley, Wistar), 2×25 mg/kg i.p/day, in water/NaHCO3
[4] = target: T1, prolyl-4-hydroxylase; experiment: Combined liver perfusion/enzyme assay (prolyl-4-hydroxylase inhibition after rat liver perfusion); assay type: biochemical, chicken; design: The enzyme is purified from 14 day-old chicken embryos; from tissue; host or cells: 14-day-old chicken embryos; conditions: after 120 min rat liver perfusion; 100 or 50 μg/ml added at t=0 and 60 min
Method: In order to investigate the inhibitory action of such active proinhibitors, the compounds were employed in perfusion experiments on isolated rat liver. The inhibitory action was then measured in a prolyl-4-hydroxylase assay.
Unfasted male Wistar rats of 200-300 g body weight (Hoe:WISKf(SPF71)) were anesthetized with pentobarbital (5 mg/100 g of body weight i.p.). After cannulation of the portal vein, the liver was washed with 100 ml of heparinized saline solution (5 lU/ml) of 37° C. for 3 min. The fluid left the liver by the incised vena cava. The organ was then removed, attached to the perfusion apparatus and perfused at a flow rate of 30 ml/min with 100 ml of medium for 2 hours under recirculating conditions. Krebs-Ringer buffer containing bovine erythrocytes was used for the perfusion. For this, bovine blood was mixed 1:1 with a citrate solution in the slaughterhouse immediately after removal. This mixture was centrifuged at 6000 rpm for 10 min and the supernatant was removed. This process was repeated once using saline solution and twice using Krebs-Ringer buffer. The final perfusion solution contained 33.3% of the erythrocyte sediment and 66.7% of Krebs-Ringer buffer (Schimassek, H. BIOCHEM. Z. 336 (1963) 460-467).
Perfusion apparatus (Ryoo and Tarver, H.P.S.E.B.M. 128 (1968) 760-72): The central element of the apparatus is a thermostated cylinder having a removable plate for the storage of the organ. The outlet tube is extended and its lower end is attached to a peristaltic pump. Before the return of the perfusate into the organ bath, it is passed through a glass spiral, which serves as a heat exchanger, which keeps the temperature constant at 37° C. At the bottom of the cylinder, the perfusate is aerated with 70 ml of a CO2 /O2 mixture (5:95%) per minute. In order to avoid foam formation, 14 μl of 0.1% strength Genapol® PF-10 solution are added per ml of perfusion solution. Samples for analysis are removed from the perfusate at a position before entry into the perfused organ.
The test substances were added to the perfusion solution at time t=0 and 60 min in concentrations of 100 or 50 μg/ml in each case. After a perfusion time of 120 min, a sample of the perfusion solution was removed for analysis.
The inhibitory activity of the metabolites which are formed in the liver during the two-hour perfusion was determined in an in vitro prolyl-4-hydroxylase assay. The enzyme is purified from 14 day-old chicken embryos as described in the literature (Tuderman et al., EUR.J.BIOCHEM. 52 (1975) 9-16; Kedersha and Berg, COLLAGEN REL. RES. 1 (1981) 345-53). The enzyme test is carried out according to Kaule and Gunzler, ANAL. BIOCHEM. 184 (1990) 291-97). Dose-response curves were obtained by means of dilution series, starting from the undiluted perfusion solution.

[5] = test system: collagen biosynthesis; conditions: Franklin et al.; cited from earlier work
[6] = test system: prolyl hydroxylase; conditions: Tschank et al.; cited from earlier work
[7] = test system: prolyl hydroxylase; conditions: Majamaa et al.; cited from earlier work
[8] = 20 mg/kg (total), intraperitoneal twice per day
[9] = 40 mg/kg (total), intraperitoneal twice per day

With `CC(C)Oc1ccc2c(O)c(C(=O)NCC(=O)O)nc(Cl)c2c1` [Example 1, N-((1-Chloro-4-hydroxy-7-(2-propyloxy)isoquinolin-3-yl)carbonyl)glycine] the “Change in hydroxyproline formation” value [1, 8] was -55% and the IC50 ([2]; Table I, read-out: IC50) was 120 nM.

With `CC(C)Oc1ccc2c(Cl)nc(C(=O)NCC(=O)O)c(O)c2c1` [Example 2, N-((1-Chloro-4-hydroxy-6-(2-propyloxy)isoquinolin-3-yl)carbonyl)glycine] the IC50 ([2]; Table I, read-out: IC50) was 1900 nM.

Work on `COc1ccc2c(O)c(C(=O)NCC(=O)O)nc(Cl)c2c1` [Example 3, N-((1-Chloro-4-hydroxy-7-methoxyisoquinolin-3-yl)carbonyl)glycine] yielded an IC50 ([2]; Table I, read-out: IC50) of 790 nM.

`COc1ccc2c(Cl)nc(C(=O)NCC(=O)O)c(O)c2c1` [Example 4, N-((1-Chloro-4-hydroxy-6-methoxyisoquinolin-3-yl)carbonyl)glycine] showed an IC50 ([2]; Table I, read-out: IC50) of 570 nM.

With `CCCCOc1ccc2c(O)c(C(=O)NCC(=O)O)nc(Cl)c2c1` [Example 5, N-((7-(1-Butyloxy)-1-chloro-4-hydroxyisoquinolin-3-yl)carbonyl)glycine] the IC50 ([2]; Table I, read-out: IC50) was 700 nM.

With `CCCCOc1ccc2c(Cl)nc(C(=O)NCC(=O)O)c(O)c2c1` [Example 6, N-(-6-(1-Butyloxy-1-chloro-4-hydroxyisoquinolin-3-yl)carbonyl)glycine] the IC50 ([2]; Table I, read-out: IC50) was 2020 nM.

`O=C(O)CNC(=O)c1nc(Cl)c2ccc(OCc3ccccc3)cc2c1O` [Example 7, N-((6-Benzyloxy-1-chloro-4-hydroxyisoquinolin-3-yl)carbonyl)glycine] gave an IC50 ([2]; Table I, read-out: IC50) of 1340 nM.

In the case of `O=C(O)CNC(=O)c1nc(Cl)c2cc(OCc3ccccc3)ccc2c1O` [Example 8, N-((7-Benzyloxy-1-chloro-4-hydroxyisoquinolin-3-yl)carbonyl)glycine], the IC50 ([2]; Table I, read-out: IC50) is reported as 620 nM.

For `O=C(O)CNC(=O)c1nc(Cl)c2ccccc2c1O` [Example 9, N-((1-Chloro-4-hydroxyisoquinolin-3-yl)carbonyl)glycine], the “Change in hydroxyproline formation” value [1, 8] was -67%, the “Change in hydroxyproline formation” value [1, 9] was -65% and the “Change in hydroxyproline formation” value ([1]; 100 mg/kg (total), intraperitoneal twice per day) was -58%. For the same compound, the “Change in hydroxyproline formation” value ([1]; 100 mg/kg, oral administration) was -71%, the IC50 [2] was 2300 nM and the liver steatosis [3] was “It was not possible to demonstrate any liver steatosis”.

With `O=C(O)CNC(=O)c1nc(Cl)c2cc(Cl)c(Cl)cc2c1O` [Example 10, N-((1,6,7-Trichloro-4-hydroxyisoquinolin-3-yl)carbonyl)glycine] the IC50 ([2]; Table I, read-out: IC50) was 3600 nM.

Compound `O=C(O)CNC(=O)c1ncc2c(Cl)cccc2c1O` [Example 11, N-((8-Chloro-4-hydroxyisoquinolin-3-yl)carbonyl)glycine] has an IC50 ([2]; Table I, read-out: IC50) of 660 nM.

For `COc1cccc2c(O)c(C(=O)NCC(=O)O)ncc12` [Example 12, N-((4-Hydroxy-8-methoxyisoquinolin-3-yl)carbonyl)glycine], the IC50 ([2]; Table I, read-out: IC50) was 650 nM.

With `CCCCOc1ccc2c(O)c(C(=O)NCC(=O)O)ncc2c1` [Example 13, N-((7-(1-Butyloxy)-4-hydroxyisoquinolin-3-yl)carbonyl)glycine] the IC50 ([2]; Table I, read-out: IC50) was 9300 nM.

In the case of `CCCCOc1ccc2cnc(C(=O)NCC(=O)O)c(O)c2c1` [Example 14, N-((6-(1-Butyloxy)-4-hydroxyisoquinolin-3-yl)carbonyl)glycine], the IC50 ([2]; Table I, read-out: IC50) is reported as 350 nM.

Compound `CC(C)Oc1ccc2c(O)c(C(=O)NCC(=O)O)ncc2c1` [Example 15, N-((4-Hydroxy-7-(2-propyloxy)isoquinolin-3-yl)carbonyl)glycine] has an IC50 ([2]; Table I, read-out: IC50) of 660 nM.

For `CC(C)Oc1ccc2c(O)c(C(=O)NCCO)nc(Cl)c2c1` [Example 19, 1-Chloro-4-hydroxy-7-(2-propyloxy)isoquinoline-3-carboxylic acid N-(2-hydroxyethyl)amide], the “Change in hydroxyproline formation” value [1, 9] was -39% and the IC50 [4] was 10500 nM.

In the case of `CC(C)Oc1ccc2c(Cl)nc(C(=O)NCCO)c(O)c2c1` [Example 20, 1-Chloro-4-hydroxy-6-(2-propyloxy)isoquinoline-3-carboxylic acid N-(2-hydroxyethyl)amide], the IC50 [4] is reported as 16600 nM.

In the case of `COc1ccc2c(O)c(C(=O)NCCO)nc(Cl)c2c1` [Example 21, 1-Chloro-4-hydroxy-7-methoxyisoquinoline-3-carboxylic acid N-(2-hydroxyethyl)amide], the IC50 [4] is reported as 7500 nM.

With `COc1ccc2c(Cl)nc(C(=O)NCCO)c(O)c2c1` [Example 22, 1-Chloro-4-hydroxy-6-methoxyisoquinoline-3-carboxylic acid N-(2-hydroxyethyl)amide] the IC50 [4] was 6400 nM.

Compound `CCCCOc1ccc2c(O)c(C(=O)NCCO)nc(Cl)c2c1` [Example 23, 7-(1-Butyloxy)-1-chloro-4-hydroxyisoquinoline-3-carboxylic acid N-(2-hydroxyethyl)amide] has an IC50 [4] of 21700 nM.

In the case of `O=C(O)CNC(=O)c1ncc2ccccc2c1O` [N-((4-Hydroxyisoquinolin-3-yl)carbonyl)glycine], the “in-vivo activity on collagen biosynthesis” value [5] is given as “poor”.

In the case of `O=C(O)c1ccnc(C(=O)O)c1` [pyridine-2,4-dicarboxylic acid], the “activity as inhibitors in cell culture” value [6] is given as “only active as inhibitors in very high concentrations” and the “inhibition of prolyl hydroxylase” value [7] is given as “effectively inhibited”.

In the case of `O=C(O)c1ccc(C(=O)O)nc1` [pyridine-2,5-dicarboxylic acid], the “activity as inhibitors in cell culture” value [6] is listed as “only active as inhibitors in very high concentrations” and the “inhibition of prolyl hydroxylase” value [7] is listed as “effectively inhibited”.
